Our source for the IC50 values is patent US20260022142A1, “MACROCYCLIC IMMUNOMODULATORS” (Bristol-Myers Squibb Company, priority 2022, published 2026).

Bridge positions count the residues as written; N and C are the ends. Square brackets hold non-standard residues; d marks the D form. Peptide text beside a SMILES is read from it. * marks the point of attachment. ξ: configuration not given here. ξPhe(4-guanidino) = N=C(N)Nc1ccc(CC(N)C(=O)O)cc1; Phe(4-CONH2) = NC(=O)c1ccc(C[C@H](N)C(=O)O)cc1; Phe(4-COOH) = N[C@@H](Cc1ccc(C(=O)O)cc1)C(=O)O; Bip = N[C@@H](Cc1ccc(-c2ccccc2)cc1)C(=O)O; Ala(2-furyl) = N[C@@H](Cc1ccco1)C(=O)O; Phe(3-Me) = Cc1cccc(C[C@H](N)C(=O)O)c1; Val(3-OH) = CC(C)(O)[C@H](N)C(=O)O; Ala(cPr) = N[C@@H](CC1CC1)C(=O)O; 4Pal = N[C@@H](Cc1ccncc1)C(=O)O; Cha = N[C@@H](CC1CCCCC1)C(=O)O; Ile(3ξ) = CCC(C)[C@H](N)C(=O)O; Carboxymethyl = O=C(O)C*; Orn = NCCC[C@H](N)C(=O)O; Aun = NCCCCCCCCCCC(=O)O; Dab = NCC[C@H](N)C(=O)O; AEEA = NCCOCCOCC(=O)O; Ac3c = NC1(C(=O)O)CC1

In this assay the target is T1, PD-1/PD-L1 interaction (PE-labeled human PD-L1-Ig binding to Jurkat cell line over-expressing human PD-1) (Homo sapiens, UniProt Q15116).
T1 construct: expressed in transfected cells; host or cells: Jurkat
T1 sequence (Q15116 25-288): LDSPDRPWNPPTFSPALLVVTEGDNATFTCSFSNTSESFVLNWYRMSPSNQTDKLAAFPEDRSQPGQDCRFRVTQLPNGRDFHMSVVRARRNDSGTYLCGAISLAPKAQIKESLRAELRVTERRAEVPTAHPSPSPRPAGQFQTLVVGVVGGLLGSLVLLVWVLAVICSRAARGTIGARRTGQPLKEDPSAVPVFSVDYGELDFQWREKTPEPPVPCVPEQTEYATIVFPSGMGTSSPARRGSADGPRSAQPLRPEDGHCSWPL
The assay can be described thus: Jurkat-PD-1 Cell Binding High-Content Screening Assay (CBA). The format is cell-based. The note with it: Jurkat cell line over-expressing human PD-1; PE-labeled PD-L1-Ig 20 nM final; read-out: Jurkat hPD1-PDL1 IC50. The gist of the method: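 Read-out is high-content imaging of cell-bound phycoerythrin-tagged PD-L1-Ig on fixed, Hoechst-counterstained Jurkat cells that over-express human PD-1. Compound exposure lasts 2 h at 37° C before the labeled ligand (20 nM final) is added for a further hour.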
Broadly, the IC50 is the point on the concentration scale where inhibition reaches its midpoint. As to `Cc1cccc(C[C@@H]2NC(=O)[C@H](CC(=O)O)NC(=O)[C@H](Cc3ccc(OCC(=O)O)cc3)NC(=O)[C@H](Cc3ccco3)NC(=O)CSC[C@@H](C(=O)N[C@@H](CCN)C(=O)NCCCCCCCCCCC(=O)O)NC(=O)[C@H](CO)NC(=O)[C@H](C(C)(C)O)NC(=O)[C@H](CC3CCCCC3)NC(=O)[C@H](CCN)NC(=O)[C@@H](CC(C)C)NC(=O)[C@H](CCCN)NC(=O)[C@H](Cc3ccc(O)cc3)NC(=O)[C@H](Cc3ccc(-c4ccccc4)cc3)NC(=O)[C@H](Cc3ccc(C(N)=O)cc3)NC2=O)c1` [Compound 3719] ({CH2CO}-[Ala(2-furyl)]Y(Carboxymethyl)D[Phe(3-Me)][Phe(4-CONH2)][Bip]Y[Orn][dL][Dab][Cha][Val(3-OH)]SC[Dab][Aun]-OH; thioether N-14), the IC50 came to 0.0298 µM.

As for `Cc1cccc(C[C@@H]2NC(=O)[C@H](CC(=O)O)NC(=O)[C@H](Cc3ccc(OCC(=O)O)cc3)NC(=O)[C@H](CCCNC(=N)N)NC(=O)CSC[C@@H](C(=O)NC3(C(=O)NCCCCCCCCCCC(=O)O)CC3)NC(=O)[C@H]([C@@H](C)O)NC(=O)[C@H](C(C)C)NC(=O)[C@H](CC3CC3)NC(=O)[C@H](CCN)NC(=O)[C@@H](CC(C)C)NC(=O)[C@H](CCCN)NC(=O)[C@H](Cc3ccc(OCC(=O)O)cc3)NC(=O)[C@H](Cc3ccc(-c4ccccc4)cc3)NC(=O)[C@H](Cc3ccc(OCC(=O)O)cc3)NC2=O)c1` [Compound 2163] ({CH2CO}-RY(Carboxymethyl)D[Phe(3-Me)]Y(Carboxymethyl)[Bip]Y(Carboxymethyl)[Orn][dL][Dab][Ala(cPr)]VTC[Ac3c][Aun]-OH; thioether N-14), the IC50 is 0.093 µM.

Take `CC(=O)NCCCC[C@@H]1NC(=O)[C@H](C(C)C)NC(=O)[C@H](CC2CCCCC2)NC(=O)[C@H](CCN)NC(=O)[C@@H](CC(C)C)NC(=O)[C@H](CCCN)NC(=O)[C@H](Cc2ccc(O)cc2)NC(=O)[C@H](Cc2ccc(-c3ccccc3)cc2)NC(=O)[C@H](C(C)C)NC(=O)[C@H](Cc2c[nH]c3ccccc23)NC(=O)[C@H](CC(=O)O)NC(=O)[C@H](Cc2ccc(OCC(=O)O)cc2)NC(=O)[C@H](CCCNC(=N)N)NC(=O)CSC[C@@H](C(=O)N[C@@H](CCN)C(=O)NCCCCCCCCCCC(=O)O)NC1=O` [Compound 3391] ({CH2CO}-RY(Carboxymethyl)DWV[Bip]Y[Orn][dL][Dab][Cha]VK(Ac)C[Dab][Aun]-OH; thioether N-14): the IC50 was found to be 0.0088 µM.

Turning to `CCC(C)[C@@H]1NC(=O)[C@H](CC2CCCCC2)NC(=O)[C@H](CCN)NC(=O)[C@@H](CC(C)C)NC(=O)[C@H](CCCN)NC(=O)[C@H](C(C)CC)NC(=O)[C@H](Cc2ccc(-c3ccccc3)cc2)NC(=O)[C@H](CC(C)C)NC(=O)[C@H](Cc2c[nH]c3ccccc23)NC(=O)[C@H](CC(=O)O)NC(=O)[C@H](Cc2ccc(OCC(=O)O)cc2)NC(=O)C(Cc2ccc(N=C(N)N)cc2)NC(=O)CSC[C@@H](C(=O)N[C@@H](CC(N)=O)C(=O)NCCOCCOCC(=O)NCCCCCCCCCCC(=O)O)NC(=O)[C@H](CO)NC1=O` (stereo partly drawn) [Compound 3117] ({CH2CO}-[ξPhe(4-guanidino)]Y(Carboxymethyl)DWL[Bip][Ile(3ξ)][Orn][dL][Dab][Cha][Ile(3ξ)]SCN[AEEA][Aun]-OH; thioether N-14), the IC50 turned out to be 0.16 µM.

`CC[C@H](C)[C@@H]1NC(=O)[C@H](Cc2ccc(-c3ccccc3)cc2)NC(=O)[C@H](C(C)C)NC(=O)[C@H](Cc2cccc(C)c2)NC(=O)[C@H](CC(=O)O)NC(=O)[C@H](Cc2ccc(C(=O)O)cc2)NC(=O)[C@H](Cc2ccncc2)NC(=O)CSC[C@@H](C(=O)N[C@@H](CC(=O)O)C(=O)NCCCCCCCCCCC(=O)O)NC(=O)[C@H]([C@@H](C)O)NC(=O)[C@H](C(C)C)NC(=O)[C@H](CC2CCCCC2)NC(=O)[C@H](CCN)NC(=O)[C@@H](CC(C)C)NC(=O)[C@H](CCCN)NC1=O` [Compound 1043] ({CH2CO}-[4Pal][Phe(4-COOH)]D[Phe(3-Me)]V[Bip]I[Orn][dL][Dab][Cha]VTCD[Aun]-OH; thioether N-14): the IC50 came out at 0.0156 µM.
